Test results taken from patent publication CN103739655A, “28-O-β-D-葡萄糖基化远志皂苷、其制备方法及用途” (Individual, priority 2013, dated 2014).

Tests used:
Assay type in all cases: in vivo
rat AA model (大鼠AA模型) = test: rat AA model (FCA-induced primary inflammation); details: for 6 h swelling degree / 12 h swelling degree / 18 h swelling degree / 24 h swelling degree: intragastric from 3 days before FCA; for 6 h swelling degree: 6 h after FCA, control 0.49±0.06; for 12 h swelling degree: 12 h after FCA, control 0.54±0.07; for 18 h swelling degree: 18 h after FCA, control 0.64±0.07; for 24 h swelling degree: 24 h after FCA, control 0.50±0.06
[1] = test system: carrageenan-induced rat paw swelling (角叉菜胶致大鼠足肿胀模型); test: carrageenan-induced paw swelling model in rats; details: intragastric; for 1 h swelling degree / 3 h swelling degree / 5 h swelling degree / 7 h swelling degree: once daily for 3 days; for 1 h swelling degree: 1 h after carrageenan, control 0.41±0.12; for 3 h swelling degree: 3 h after carrageenan, control 0.83±0.13; for 5 h swelling degree: 5 h after carrageenan, control 0.70±0.12; for 7 h swelling degree: 7 h after carrageenan, control 0.63±0.11
[2] = test system: xylene-induced mouse ear swelling (二甲苯所致小鼠耳肿胀模型); test: xylene-induced ear swelling model in mice; details: intragastric
[3] = 25, 50, 100 mg/kg, intragastric

**Q.** 28-O-β-D-葡萄糖基化远志皂苷 was tested. Which “6 h swelling degree” value (rat AA model (大鼠AA模型); 25 mg/kg (low dose)) did it give?
**A.** 0.45 ± 0.05 mL

**Q.** And the “12 h swelling degree” value (rat AA model (大鼠AA模型); 25 mg/kg (low dose))?
**A.** 0.51 ± 0.16 mL

**Q.** What about the “18 h swelling degree” value (rat AA model (大鼠AA模型); 25 mg/kg (low dose)) of the same molecule?
**A.** 0.61 ± 0.13 mL

**Q.** And the “24 h swelling degree” value (rat AA model (大鼠AA模型); 25 mg/kg (low dose))?
**A.** 0.46 ± 0.15 mL

**Q.** And the “6 h swelling degree” value (rat AA model (大鼠AA模型); 50 mg/kg (medium dose))?
**A.** 0.28 ± 0.05 mL

**Q.** What about the “12 h swelling degree” value (rat AA model (大鼠AA模型); 50 mg/kg (medium dose)) of the same molecule?
**A.** 0.30 ± 0.08 mL

**Q.** And the “18 h swelling degree” value (rat AA model (大鼠AA模型); 50 mg/kg (medium dose))?
**A.** 0.33 ± 0.06 mL

**Q.** What about the “24 h swelling degree” value (rat AA model (大鼠AA模型); 50 mg/kg (medium dose)) of the same molecule?
**A.** 0.27 ± 0.07 mL

**Q.** What about the “6 h swelling degree” value (rat AA model (大鼠AA模型); 100 mg/kg (high dose)) of the same molecule?
**A.** 0.15 ± 0.06 mL

**Q.** What about the “12 h swelling degree” value (rat AA model (大鼠AA模型); 100 mg/kg (high dose)) of the same molecule?
**A.** 0.19 ± 0.08 mL

**Q.** What about the “18 h swelling degree” value (rat AA model (大鼠AA模型); 100 mg/kg (high dose)) of the same molecule?
**A.** 0.30 ± 0.07 mL

**Q.** What about the “24 h swelling degree” value (rat AA model (大鼠AA模型); 100 mg/kg (high dose)) of the same molecule?
**A.** 0.25 ± 0.06 mL

**Q.** And the “concentration dependence of inhibition of primary inflammation in AA rats” value (rat AA model (大鼠AA模型); [3])?
**A.** 具有一定的浓度依赖性

**Q.** And the “inhibition of FCA-induced primary inflammation in AA rats” value (rat AA model (大鼠AA模型); [3])?
**A.** 有明显的抑制作用

**Q.** And the “1 h swelling degree” value ([1]; 25 mg/kg (low dose))?
**A.** 0.33 ± 0.05 mL

**Q.** And the “3 h swelling degree” value ([1]; 25 mg/kg (low dose))?
**A.** 0.64 ± 0.16 mL

**Q.** And the “5 h swelling degree” value ([1]; 25 mg/kg (low dose))?
**A.** 0.48 ± 0.13 mL

**Q.** What about the “7 h swelling degree” value ([1]; 25 mg/kg (low dose)) of the same molecule?
**A.** 0.33 ± 0.07 mL

**Q.** And the “1 h swelling degree” value ([1]; 50 mg/kg (medium dose))?
**A.** 0.17 ± 0.05 mL

**Q.** What about the “3 h swelling degree” value ([1]; 50 mg/kg (medium dose)) of the same molecule?
**A.** 0.45 ± 0.12 mL

**Q.** What about the “5 h swelling degree” value ([1]; 50 mg/kg (medium dose)) of the same molecule?
**A.** 0.39 ± 0.07 mL

**Q.** And the “7 h swelling degree” value ([1]; 50 mg/kg (medium dose))?
**A.** 0.19 ± 0.05 mL

**Q.** And the “1 h swelling degree” value ([1]; 100 mg/kg (high dose))?
**A.** 0.11 ± 0.05 mL

**Q.** What about the “3 h swelling degree” value ([1]; 100 mg/kg (high dose)) of the same molecule?
**A.** 0.37 ± 0.13 mL

**Q.** And the “5 h swelling degree” value ([1]; 100 mg/kg (high dose))?
**A.** 0.31 ± 0.08 mL

**Q.** What about the “7 h swelling degree” value ([1]; 100 mg/kg (high dose)) of the same molecule?
**A.** 0.16 ± 0.09 mL

**Q.** What about the “concentration dependence of inhibition of rat paw swelling” value ([1]; 25, 50, 100 mg/kg) of the same molecule?
**A.** 具有一定的浓度依赖性

**Q.** And the “inhibition of carrageenan-induced rat paw swelling” value ([1]; 25, 50, 100 mg/kg)?
**A.** 有抑制作用

**Q.** And the inhibition rate ([2]; 25 mg/kg (low dose), once daily for 3 days, ear swelling vs control, P<0.05)?
**A.** 6.5%

**Q.** What about the inhibition rate ([2]; 50 mg/kg (medium dose), once daily for 3 days, ear swelling vs control, P<0.01) of the same molecule?
**A.** 39.1%

**Q.** And the inhibition rate ([2]; 100 mg/kg (high dose), once daily for 3 days, ear swelling vs control, P<0.01)?
**A.** 48.4%

**Q.** And the “inhibition of xylene-induced acute inflammation of mouse auricle” value ([2]; 25, 50, 100 mg/kg)?
**A.** 能抑制

**Q.** For `COc1ccc2cc([C@H](C)C(=O)O)ccc2c1` [萘普生, reference compound], which “6 h swelling degree” value (rat AA model (大鼠AA模型); 30 mg/kg) is on record?
**A.** 0.16 ± 0.09 mL

**Q.** What about the “12 h swelling degree” value (rat AA model (大鼠AA模型); 30 mg/kg) of the same molecule?
**A.** 0.22 ± 0.07 mL

**Q.** What about the “18 h swelling degree” value (rat AA model (大鼠AA模型); 30 mg/kg) of the same molecule?
**A.** 0.29 ± 0.08 mL

**Q.** What about the “24 h swelling degree” value (rat AA model (大鼠AA模型); 30 mg/kg) of the same molecule?
**A.** 0.28 ± 0.06 mL

**Q.** And the “1 h swelling degree” value ([1]; 30 mg/kg)?
**A.** 0.08 ± 0.07 mL

**Q.** What about the “3 h swelling degree” value ([1]; 30 mg/kg) of the same molecule?
**A.** 0.21 ± 0.05 mL

**Q.** And the “5 h swelling degree” value ([1]; 30 mg/kg)?
**A.** 0.13 ± 0.08 mL

**Q.** And the “7 h swelling degree” value ([1]; 30 mg/kg)?
**A.** 0.12 ± 0.07 mL

**Q.** What about the inhibition at 45 mg/kg ([2]; Mus musculus, po, 72 h, 45 mg/kg, once daily for 3 days, ear swelling vs control, P<0.01, read-out: inhibition rate) of the same molecule?
**A.** 45.7%
